Assay results taken from article PMC3048208 (British Journal of Cancer, 2011).
Where a name gives a salt, the structure may show the parent alone. Marks after values point to notes of the source that are not given here.

Tested on: patients with advanced solid tumours
Assay: Phase I safety: DLT and adverse events (CTCAE v3.0)
[1] = Grades 3/4, level 1, 10 mg 3 days every 2 weeks, 3 patients
[2] = Grades 3/4, level 2, 10 mg, 6 patients
[3] = Grades 3/4, level 3, 20 mg, 6 patients
[4] = Grades 3/4, level 4, 30 mg, 4 patients
[5] = Grades 3/4, level 5, 50 mg, 4 patients
[6] = Grades 3/4, level 5.5, 60 mg, 7 patients
[7] = Grades 3/4, level 6, 70 mg, 6 patients
[8] = Grades 3/4, level 7, 90 mg, 2 patients
[9] = all 38 treated patients, all grades
[10] = dose level 3, dose 20, 5 days every 2 weeks
[11] = dose level 6, dose 70, 5 days every 2 weeks, re-opened for expansion

CCCCc1nc2cc(/C=C/C(=O)NO)ccc2n1CCN(CC)CC [SB939, 3-[2-butyl-1-(2-diethylaminoethyl)-1H-benzoimidazol-5-yl]-N-hydroxyacrylami-hydrochloride]
one: Grade 3 diarrhea, no. of patients (all 38 treated patients) | Grade 3 myositis, no. of patients (all 38 treated patients) | Grade 3 syncope, no. of patients (all 38 treated patients) | Grade 3 vomiting, no. of patients (all 38 treated patients) | Grade 3 CPK elevation, no. of patients (patient with myositis)
1/6: No. of patients with DLT/total no. of patients treated [10]
80%: Lymphopenia, patients (dose ⩾60 mg)
0/3: No. of patients with DLT/total no. of patients treated (dose level 1, dose 10, 3 days every 2 weeks) | No. of patients with DLT/total no. of patients treated (dose level 6, dose 70, 5 days every 2 weeks, escalation phase)
20–39%: LVEF during periods of arrhythmia (one patient, cycle 7, baseline 55%, unclear if drug related)
two: Dose omissions, no. of patients (RPTD 60 mg, n=7, alteration of liver function tests) | Dose reductions, no. of patients (RPTD 60 mg, n=7, transaminase rise and QTc prolongation)
four: Grade 2 QTc prolongation, no. of patients (all dose levels)
57%: Lymphopenia, patients (dose levels ⩽50 mg)
Grade 3 fatigue Grade 3 vomiting: DLT (dose level 7, dose 90, 5 days every 2 weeks)
26%: Granulocytopenia, patients (dose levels ⩽50 mg)
3/3: No. of patients with DLT/total no. of patients treated [11]
none were grade 3: Grade 3 QTc elevations (all dose levels)
60%: Granulocytopenia, patients (dose ⩾60 mg)
475 ms: Maximum QTc (one patient, Day 1 cycle 7, 10 h after dose, unclear if drug related)
Grade 3 myositis: DLT [10]
Grade 3 ALT ^d: DLT (dose level 5.5, dose 60, 5 days every 2 weeks, not clear if entirely related to drug)
0: Myositis, no. of patients [1] | Nausea, no. of patients [1] | QT prolongation, no. of patients [1] | Supra ventricular arrythmia, no. of patients [1] | Syncope, no. of patients [1] | Thrombocytopenia, no. of patients [1] | Ventricular arrythmias (PVCs), no. of patients [1] | Ventricular bigemini, no. of patients [1] | Vomiting, no. of patients [1] | ALT (raised), no. of patients [2] | AST (raised), no. of patients [2] | Abdominal pain, no. of patients [2] | Altered taste, no. of patients [2] | Anaemia, no. of patients [2] | Anorexia, no. of patients [2] | Bilirubin (raised), no. of patients [2] | CPK, no. of patients [2] | Cardiac arrythmia other, no. of patients [2] | Cardiac dysfunction, no. of patients [2] | Cardiac ischaemia, no. of patients [2] | Constipation, no. of patients [2] | Creatinine (raised), no. of patients [2] | Diarrhoea, no. of patients [2] | Fatigue, no. of patients [2] | Leukopenia, no. of patients [2] | Mucositis, no. of patients [2] | Myositis, no. of patients [2] | Nausea, no. of patients [2] | Neutropenia, no. of patients [2] | QT prolongation, no. of patients [2] | Supra ventricular arrythmia, no. of patients [2] | Syncope, no. of patients [2] | Thrombocytopenia, no. of patients [2] | Ventricular arrythmias (PVCs), no. of patients [2] | Ventricular bigemini, no. of patients [2] | Vomiting, no. of patients [2] | ALT (raised), no. of patients [3] | AST (raised), no. of patients [3] | Abdominal pain, no. of patients [3] | Altered taste, no. of patients [3] | Anorexia, no. of patients [3] | Bilirubin (raised), no. of patients [3] | Cardiac arrythmia other, no. of patients [3] | Cardiac dysfunction, no. of patients [3] | Cardiac ischaemia, no. of patients [3] | Constipation, no. of patients [3] | Creatinine (raised), no. of patients [3] | Diarrhoea, no. of patients [3] | Fatigue, no. of patients [3] | Leukopenia, no. of patients [3] | Lymphopenia, no. of patients [3] | Mucositis, no. of patients [3] | Nausea, no. of patients [3] | Neutropenia, no. of patients [3] | QT prolongation, no. of patients [3] | Supra ventricular arrythmia, no. of patients [3] | Thrombocytopenia, no. of patients [3] | Ventricular arrythmias (PVCs), no. of patients [3] | Ventricular bigemini, no. of patients [3] | Vomiting, no. of patients [3] | ALT (raised), no. of patients [4] | AST (raised), no. of patients [4] | Abdominal pain, no. of patients [4] | Alkaline phophatase (raised), no. of patients [4] | Altered taste, no. of patients [4] | Anaemia, no. of patients [4] | Anorexia, no. of patients [4] | Bilirubin (raised), no. of patients [4] | CPK, no. of patients [4] | Cardiac arrythmia other, no. of patients [4] | Cardiac dysfunction, no. of patients [4] | Cardiac ischaemia, no. of patients [4] | Constipation, no. of patients [4] | Creatinine (raised), no. of patients [4] | Diarrhoea, no. of patients [4] | Fatigue, no. of patients [4] | Leukopenia, no. of patients [4] | Lymphopenia, no. of patients [4] | Mucositis, no. of patients [4] | Myositis, no. of patients [4] | Nausea, no. of patients [4] | Neutropenia, no. of patients [4] | QT prolongation, no. of patients [4] | Supra ventricular arrythmia, no. of patients [4] | Syncope, no. of patients [4] | Thrombocytopenia, no. of patients [4] | Ventricular arrythmias (PVCs), no. of patients [4] | Ventricular bigemini, no. of patients [4] | Vomiting, no. of patients [4] | ALT (raised), no. of patients [5] | AST (raised), no. of patients [5] | Abdominal pain, no. of patients [5] | Alkaline phophatase (raised), no. of patients [5] | Altered taste, no. of patients [5] | Anaemia, no. of patients [5] | Anorexia, no. of patients [5] | Bilirubin (raised), no. of patients [5] | CPK, no. of patients [5] | Cardiac arrythmia other, no. of patients [5] | Cardiac dysfunction, no. of patients [5] | Cardiac ischaemia, no. of patients [5] | Constipation, no. of patients [5] | Creatinine (raised), no. of patients [5] | Diarrhoea, no. of patients [5] | Fatigue, no. of patients [5] | Leukopenia, no. of patients [5] | Mucositis, no. of patients [5] | Myositis, no. of patients [5] | Nausea, no. of patients [5] | Neutropenia, no. of patients [5] | QT prolongation, no. of patients [5] | Supra ventricular arrythmia, no. of patients [5] | Syncope, no. of patients [5] | Thrombocytopenia, no. of patients [5] | Ventricular arrythmias (PVCs), no. of patients [5] | Ventricular bigemini, no. of patients [5] | Vomiting, no. of patients [5] | AST (raised), no. of patients [6] | Abdominal pain, no. of patients [6] | Alkaline phophatase (raised), no. of patients [6] | Altered taste, no. of patients [6] | Anaemia, no. of patients [6] | Anorexia, no. of patients [6] | Bilirubin (raised), no. of patients [6] | CPK, no. of patients [6] | Cardiac arrythmia other, no. of patients [6] | Cardiac dysfunction, no. of patients [6] | Cardiac ischaemia, no. of patients [6] | Constipation, no. of patients [6] | Creatinine (raised), no. of patients [6] | Mucositis, no. of patients [6] | Myositis, no. of patients [6] | Nausea, no. of patients [6] | Neutropenia, no. of patients [6] | QT prolongation, no. of patients [6] | Supra ventricular arrythmia, no. of patients [6] | Syncope, no. of patients [6] | Thrombocytopenia, no. of patients [6] | Ventricular arrythmias (PVCs), no. of patients [6] | Ventricular bigemini, no. of patients [6] | Vomiting, no. of patients [6] | ALT (raised), no. of patients [7] | AST (raised), no. of patients [7] | Abdominal pain, no. of patients [7] | Alkaline phophatase (raised), no. of patients [7] | Altered taste, no. of patients [7] | Anaemia, no. of patients [7] | Anorexia, no. of patients [7] | Bilirubin (raised), no. of patients [7] | CPK, no. of patients [7] | Cardiac arrythmia other, no. of patients [7] | Cardiac dysfunction, no. of patients [7] | Cardiac ischaemia, no. of patients [7] | Constipation, no. of patients [7] | Creatinine (raised), no. of patients [7] | Diarrhoea, no. of patients [7] | Mucositis, no. of patients [7] | Myositis, no. of patients [7] | Nausea, no. of patients [7] | QT prolongation, no. of patients [7] | Supra ventricular arrythmia, no. of patients [7] | Syncope, no. of patients [7] | Ventricular arrythmias (PVCs), no. of patients [7] | Ventricular bigemini, no. of patients [7] | Vomiting, no. of patients [7] | ALT (raised), no. of patients [8] | AST (raised), no. of patients [8] | Abdominal pain, no. of patients [8] | Alkaline phophatase (raised), no. of patients [8] | Altered taste, no. of patients [8] | Anaemia, no. of patients [8] | Anorexia, no. of patients [8] | Bilirubin (raised), no. of patients [8] | CPK, no. of patients [8] | Cardiac arrythmia other, no. of patients [8] | Cardiac dysfunction, no. of patients [8] | Cardiac ischaemia, no. of patients [8] | Constipation, no. of patients [8] | Creatinine (raised), no. of patients [8] | Diarrhoea, no. of patients [8] | Leukopenia, no. of patients [8] | Lymphopenia, no. of patients [8] | Mucositis, no. of patients [8] | Myositis, no. of patients [8] | Nausea, no. of patients [8] | Neutropenia, no. of patients [8] | QT prolongation, no. of patients [8] | Supra ventricular arrythmia, no. of patients [8] | Syncope, no. of patients [8] | Thrombocytopenia, no. of patients [8] | Ventricular arrythmias (PVCs), no. of patients [8] | Ventricular bigemini, no. of patients [8]
1/2 ^b: No. of patients with DLT/total no. of patients treated (dose level 7, dose 90, 5 days every 2 weeks, neither patient completed a full cycle)
25: Anaemia, no. of patients (grade 1)
Thirty-six: Anaemia on study, no. of patients (of 38 patients, any grade)
18%: Diarrhoea, related AE, frequency [9]
90 mg: Maximal administered dose (MAD) (oral, 5 days every 2 weeks)
three: Grade 2 QTc prolongation, no. of patients (dose level of 60 mg or higher)
87%: Thrombocytopenia, patients (dose ⩾60 mg)
3: Lymphopenia, no. of patients [6] | Lymphopenia, no. of patients [7]
0/4: No. of patients with DLT/total no. of patients treated (dose level 4, dose 30, 5 days every 2 weeks) | No. of patients with DLT/total no. of patients treated (dose level 5, dose 50, 5 days every 2 weeks)
1/6 ^a: No. of patients with DLT/total no. of patients treated (dose level 2, dose 10, 5 days every 2 weeks, grade 3 bilirubin subsequently declared not drug related)
60 mg: Recommended phase II dose (RPTD) (oral, 5 consecutive days every 2 weeks)
4: Grade 3 fatigue, no. of patients (all 38 treated patients)
53%: Fatigue, related AE, frequency [9]
10: Anaemia, no. of patients (grade 2)
39%: Nausea, related AE, frequency [9]
Grade 4 platelets Grade 3 fatigue: DLT [11]
1: Neutropenia, no. of patients [1] | Alkaline phophatase (raised), no. of patients [2] | Alkaline phophatase (raised), no. of patients [3] | Anaemia, no. of patients [3] | CPK, no. of patients [3] | Myositis, no. of patients [3] | Syncope, no. of patients [3] | Diarrhoea, no. of patients [6] | Fatigue, no. of patients [6] | Leukopenia, no. of patients [6] | Leukopenia, no. of patients [7] | Neutropenia, no. of patients [7] | Thrombocytopenia, no. of patients [7] | Fatigue, no. of patients [8] | Vomiting, no. of patients [8] | Anaemia, no. of patients (grade 3)
2: Lymphopenia, no. of patients [2] | Lymphopenia, no. of patients [5] | ALT (raised), no. of patients [6] | Fatigue, no. of patients [7]
29%: Anorexia, related AE, frequency [9] | Vomiting, related AE, frequency [9]
